Data reported in US10112949B2, “6,7-dihydropyrazolo[1,5-a]pyrazin-4(5H)-one compounds and their use as negative allosteric modulators of mGluR2 receptors” (Janssen Pharmaceutica NV, priority 2014, dated 2018).
Read-outs that look alike come from different tables or passages of the source.

Columns and labels:
human mGlu2 receptor = human mGlu2 receptor (Homo sapiens, UniProt Q14416); assay: [35S]GTPγS binding assay, negative allosteric modulation of mGluR2; conditions: for Emax: read-out: GTPγS - hmGluR2 anGT Emax;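 for all read-outs here: membranes from CHO cells expressing the receptor, compound with glutamate near EC80 (60 µM), 30 min preincubation then 30 min label uptake at 30 °C, percent of control glutamate response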
Chain of human mGlu2 receptor (Q14416 19-872): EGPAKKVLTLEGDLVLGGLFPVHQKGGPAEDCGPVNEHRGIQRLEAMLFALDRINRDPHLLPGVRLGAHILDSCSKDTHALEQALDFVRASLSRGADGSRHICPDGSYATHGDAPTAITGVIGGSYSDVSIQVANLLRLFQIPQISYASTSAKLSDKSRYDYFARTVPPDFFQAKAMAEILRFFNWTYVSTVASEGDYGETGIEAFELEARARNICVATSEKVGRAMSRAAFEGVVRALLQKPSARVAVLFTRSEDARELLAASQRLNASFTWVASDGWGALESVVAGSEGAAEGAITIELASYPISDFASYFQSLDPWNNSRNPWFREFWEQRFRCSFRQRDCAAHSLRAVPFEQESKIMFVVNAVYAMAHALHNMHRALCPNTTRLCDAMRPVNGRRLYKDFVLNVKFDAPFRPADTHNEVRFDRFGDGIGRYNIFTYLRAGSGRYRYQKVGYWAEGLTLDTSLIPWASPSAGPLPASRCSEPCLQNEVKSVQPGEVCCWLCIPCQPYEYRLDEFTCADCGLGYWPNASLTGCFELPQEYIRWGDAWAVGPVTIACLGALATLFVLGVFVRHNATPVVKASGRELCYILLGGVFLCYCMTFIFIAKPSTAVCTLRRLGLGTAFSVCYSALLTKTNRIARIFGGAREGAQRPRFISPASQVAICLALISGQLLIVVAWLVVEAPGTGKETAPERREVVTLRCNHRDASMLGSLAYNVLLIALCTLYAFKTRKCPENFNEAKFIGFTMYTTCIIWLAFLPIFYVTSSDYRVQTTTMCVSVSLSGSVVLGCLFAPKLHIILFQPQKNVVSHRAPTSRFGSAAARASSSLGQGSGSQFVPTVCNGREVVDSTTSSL
Experimental: Here we describe the use of the [^35S]GTPγS binding assay using membranes from cells transfected with the human mGlu2 receptor and adapted from Schaffhauser et al. (Molecular Pharmacology, 2003, 4:798-810) for the detection of the negative allosteric modulation (NAM) properties of the compounds of this invention.
CHO-cells were cultured to pre-confluence and stimulated with 5 mM butyrate for 24 h. Cells were then collected by scraping in PBS and cell suspension was centrifuged (10 min at 4000 RPM in benchtop centrifuge). Supernatant was discarded and pellet gently resuspended in 50 mM Tris-HCl, pH 7.4 by mixing with an Ultra Turrax homogenizer. The suspension was centrifuged at 12,400 RPM (Sorvall F14S-6x250Y) for 10 minutes and the supernatant discarded. The pellet was homogenized in 5 mM Tris-HCl, pH 7.4 using an Ultra Turrax homogenizer and centrifuged again (13,000 RPM, 20 min, 4° C.). The final pellet was resuspended in 50 mM Tris-HCl, pH 7.4 and stored at −80° C. in appropriate aliquots before use. Protein concentration was determined by the Bradford method (Bio-Rad, USA) with bovine serum albumin as standard.
Measurement of mGluR2 negative allosteric modulatory activity of test compounds was performed as follows. Test compounds and glutamate were diluted in assay buffer containing 10 mM HEPES acid, 10 mM HEPES salt, pH 7.4, 100 mM NaCl, 3 mM MgCl2 and 10 μM GDP. Human mGlu2 receptor-containing membranes were thawed on ice and diluted in assay buffer supplemented with 18 μg/ml saponin. Membranes were pre-incubated with compound together with a predefined (˜EC80) concentration of glutamate (60 μM) for 30 min at 30° C. After addition of [^35S]GTPγS (f.c. 0.1 nM), assay mixtures were shaken briefly and further incubated to allow [^35S]GTPγS incorporation on activation (30 minutes, 30° C.). Final assay mixtures contained 7 μg of membrane protein in 10 mM HEPES acid, 10 mM HEPES salt, pH 7.4, 100 mM NaCl, 3 mM MgCl2, 10 μM GDP and 10 μg/ml saponin. Total reaction volume was 200 μl. Reactions were terminated by rapid filtration through Unifilter-96 GF/B plates (Perkin Elmer, Massachusetts, USA) using a 96-well filtermate universal harvester. Filters were washed 6 times with ice-cold 10 mM NaH2PO4/10 mM Na2HPO4, pH 7.4. Filters were then air-dried and 30 μl of liquid scintillation cocktail (Microscint-O) was added to each well. Membrane-bound radioactivity was counted in a Topcount.
Data were calculated as % of the control glutamate response, defined as the response that is generated upon addition of an EC80-equivalent concentration of glutamate. Sigmoid concentration-response curves plotting these percentages versus the log concentration of the test compound were analyzed using non-linear regression analysis. The concentration producing half-maximal inhibition was calculated as the IC50. The pIC50 values were calculated as the −log IC50, when the IC50 is expressed in M. Emax is defined as the relative maximal effect (i.e. maximal % inhibition relative to the control glutamate response).

[1] = tested on: apomorphine-challenged rats; assay: Reversal of LY-404039-induced decrease of palpebral opening in apomorphine-challenged rats; type: in vivo, rat; conditions: for ED50: rat, criterion cumulative palpebral opening score >26, read-out: ED50 APO LY-404039
Experimental: B) In Vivo Pharmacology 1) Reversal of LY-404039-Induced Decrease of Palpebral Opening in Apomorphine-Challenged Rats.
Male Wiga Wistar rats (Crl:WI; Charles River Germany; 220±40 g) were housed under standard laboratory conditions (21±2° C.; 50-65% relative humidity; light-dark cycle set at 12 h; lights on at 6.00 h) and fasted overnight prior to the start of the experiments (tap water remained available ad libitum). During the test period, they were housed in individual cages. Palpebral opening was scored every 5 min over the first hour after injection of apomorphine (1.0 mg/kg, i.v.) in animals either pretreated or not pretreated with LY-404039 (2.5 mg/kg, s.c.) at 1 h prior to the apomorphine injection. The animals were also pretreated with test compound or solvent at a predefined interval before apomorphine challenge. The score system was: (5) exophthalmos, (4) wide open, (3) open for three-quarters, (2) half open, (1) open for one-quarter, (0) closed. The scores for palpebral opening were cumulated over the 60-min observation period.

rats = assay: Reversal of the effect of the mGluR2 PAM JNJ-42153605-induced inhibition of scopolamine-induced hyperlocomotion; type: in vivo, rat; conditions: for ED50: rat, route PO (route cell empty for Co. No. 22, 25, 18, 19, 29), criterion total distance >1500 cm, read-out: ED50 SCOP JNJ-42153605
Experimental: 2) Reversal of the Effect of the mGluR2 PAM JNJ-42153605-Induced Inhibition of Scopolamine-Induced Hyperlocomotion Apparatus
Motor activity was measured in microprocessor-based motor activity arenas (closed gray PVC cylinders with a height of 39 cm and a diameter of 31 cm). Each arena was placed on an infrared LED (8×8 LEDs) lit box (white PVC squared box; 40×40 cm^2; height 12.5 cm. An infrared-sensitive tube camera and a white light source were mounted to the ceiling above the observation chamber to track the animal. The total distance traveled (cm) was recorded and analyzed using the Noldus Ethovision XT Video Tracking System (Version 7.0.418; Noldus, Wageningen, The Netherlands). The intensity of the light within the activity cages (measured in the centre at the level of the floor) ranged between 4 and 8 LUX.
The rats were pretreated with test compound or vehicle at 60 min before the start of the activity recordings and placed into individual cages. The rats were challenged with JNJ-42153605 (3-(cyclopropylmethyl)-7-(4-phenylpiperidin-1-yl)-8-(trifluoromethyl)-[1,2,4]triazolo[4,3-a]pyridine; WO2010/130424; Cid et al. J. Med. Chem. 2012, 55, 8770-8789) (20 mg/kg, i.v.) 30 min before the start of the activity recording combined with scopolamine (0.16 mg/kg, i.v.) just before the start of the activity measurements. Immediately after the injection of scopolamine, the rats were placed into the activity monitors and total distance travelled over the first 30 min was measured.
Solvent-Pretreated Control Rats.
For reversal of the inhibitory effect of JNJ-42153605 on the scopolamine-induced hyperlocomotion, the following all-or-none criteria were adopted: (1) reversal: total distance >1500 cm.

Induction of mydriasis = conditions: Wiga, in vivo, rat, route PO; for ED50: maximum pupil diameter >25 units over 1, 2 or 3 h post-administration, read-out: ED50 MYD Test 2
Experimental: 3) Induction of Mydriasis
The pupil diameter of Wiga rats was measured with a microscopic micrometer (1 unit= 1/24 mm). Criteria for drug-induced effects: pupil diameter >25 units for mydriasis (in controls: 1.9%) 1 h post-administration of the test compound (test 1) or 1, 2 or 3 h post-administration of the test compound (test 2, wherein the maximum pupil diameter over the full 3 h period is reported).

[2] = control rats, scores cumulated over 60 min
[3] = historical solvent-pretreated control rats, first 30 min

| Structure (SMILES) | IC50 (human mGlu2 receptor) [nM] | Emax (human mGlu2 receptor) [%] | other results |
| --- | --- | --- | --- |
| COc1nc(N2C[C@H](C)n3ncc(C#Cc4ccc(N)nc4)c3C2=O)ccc1C(F)(F)F [compound 33] | 2.51 | 109 | – |
| C[C@H]1CN(c2ccc(C(F)(F)F)cc2)C(=O)c2c(C#Cc3cncc(CO)c3)cnn21 [compound 28] | 53.7 | 101 | – |
| CNc1ccc(C#Cc2cnn3c2C(=O)N(c2ccc(C(F)(F)F)c(OC)n2)C[C@@H]3C)cn1 [compound 32] | 9.33 | 106 | – |
| COCc1cncc(C#Cc2cnn3c2C(=O)N(c2ccc(C(F)(F)F)cc2)C[C@@H]3C)c1 [compound 27] | 97.7 | 106 | – |
| C[C@H]1CN(c2ccc(C(F)(F)F)cc2)C(=O)c2c(C#Cc3cnc(N)cc3CF)cnn21 [compound 23] | 2.75 | 106 | – |
| C[C@H]1CN(c2ccc(C(F)(F)F)cc2)C(=O)c2c(C#Cc3ccc(S(=O)(=O)F)cc3)cnn21 [compound 35] | 42.7 | 108 | – |
| CN1CCc2cccc3c2[C@H]1Cc1ccc(O)c(O)c1-3 [Apomorphine alone, apomorphine] | – | – | Palpebral opening score, Median score ([1]; control rats, apomorphine 1.0 mg/kg i.v., LY-404039 2.5 mg/kg s.c., scores cumulated over 60 min): 43; Palpebral opening score, Occurrence score >26 (%) [1, 2]: 99.5%; Palpebral opening score, Occurrence score >34 (%) [1, 2]: 95.9%; Palpebral opening score, Occurrence score >34 (%) ([1]; control rats, scores cumulated over 60 min, listed as apomorphine alone): 95.5% |
| COc1ccc(C#Cc2cnn3c2C(=O)N(c2ccc(Cl)c(Cl)c2)C[C@@H]3C)cn1 [compound 6] | 5.62 | 106 | – |
| COCc1cc(N)ncc1C#Cc1cnn2c1C(=O)N(c1ccc(C(F)(F)F)cc1)C[C@@H]2C [compound 25] | 2.24 | 105 | ED50 (rats): 0.08 mg/kg |
| C[C@H]1CN(c2ccc(C(F)(F)F)cn2)C(=O)c2c(C#Cc3ccc(N)nc3)cnn21 [compound 4] | 2.4 | 103 | – |
| C[C@H]1CN(c2ccc(C(F)C(F)(F)F)cc2)C(=O)c2c(C#Cc3ccc(N)nc3)cnn21 (some centres unmarked) [compound 16] | 7.08 | 104 | – |
| COCc1cc(C#Cc2cnn3c2C(=O)N(c2ccc(C(F)(F)F)cc2)C[C@@H]3C)cnc1N [compound 20] | 24 | 102 | – |
| C[C@H]1CN(c2ccc(C(F)(F)F)cc2)C(=O)c2c(C#Cc3ccc(N)nc3)cnn21 [compound 1] | 1.58 | 106 | ED50 ([1]; route PO): 0.08 mg/kg; ED50 ([1]; route SC): 0.06 mg/kg; ED50 (Induction of mydriasis): > 40 mg/kg; ED50 at 1 h (Induction of mydriasis; pupil diameter >25 units 1 h post-administration, read-out: ED50 MYD Test 1): > 10 mg/kg; ED50 (rats): 0.17 mg/kg |
| C[C@H]1CN(c2ccc(C(F)(F)F)cc2)C(=O)c2c(C#Cc3cnc(N)c(CF)c3)cnn21 [compound 21] | 41.7 | 102 | – |
| CNc1ccc(C#Cc2cnn3c2C(=O)N(c2ccc(Cl)c(Cl)c2)C[C@@H]3C)cn1 [compound 3] | 2.24 | 105 | – |
| C[C@H]1CN(c2ccc(C(F)(F)F)cc2)C(=O)c2c(C#Cc3ccccc3)cnn21 [compound 5] | 4.07 | 105 | – |
| Cc1ccc(C#Cc2cnn3c2C(=O)N(c2ccc(C(F)(F)F)cc2)C[C@@H]3C)cn1 [compound 11] | 10.2 | 103 | – |

| Structure (SMILES) | IC50 (human mGlu2 receptor) [nM] | Emax (human mGlu2 receptor) [%] | other results |
| --- | --- | --- | --- |
| C[C@H]1CN(c2ccc(C(F)(F)F)c(Cl)c2)C(=O)c2c(C#Cc3ccc(N)nc3)cnn21 [compound 13] | 1.1 | 108 | ED50 (Induction of mydriasis): > 40 mg/kg; ED50 (rats): 0.028 mg/kg |
| C[C@H]1CN(c2ccc(C(F)(F)F)cc2)C(=O)c2c(C#Cc3cncc(CF)c3)cnn21 [compound 26] | 37.2 | 108 | – |
| C[C@H]1CN(c2ccc(Cl)c(Cl)c2)C(=O)c2c(C#Cc3ccc(N)nc3)cnn21 [compound 2] | 1.12 | 105 | – |
| C[C@H]1CN(c2ccc(C(F)(F)F)cc2)C(=O)c2c(C#Cc3cccnc3N)cnn21 [compound 17] | 14.8 | 105 | – |
| CN1[C@@H]2C[C@@H](OC(=O)[C@H](CO)c3ccccc3)C[C@H]1[C@@H]1O[C@@H]12 [Scopolamine, scopolamine, reference compound] | – | – | Total distance >1500 cm (%) (rats; [3]): 100%; Total distance >4400 cm (%) (rats; [3]): 95.8%; Total distance travelled, Median (cm) (rats; [3]): 7246 cm |
| COc1ccc(N2C[C@H](C)n3ncc(C#Cc4ccc(N)nc4)c3C2=O)cc1Cl [compound 8] | 8.51 | 107 | – |
| CNc1ncccc1C#Cc1cnn2c1C(=O)N(c1ccc(C(F)(F)F)cc1)C[C@@H]2C [compound 24] | 15.8 | 99 | – |
| C[C@H]1CN(c2ccc(C(F)(F)F)cc2)C(=O)c2c(C#Cc3cccc(S(=O)(=O)F)c3)cnn21 [compound 34] | 14.5 | 110 | – |
| C[C@H]1CN(c2ccc(Cl)c(Cl)c2)C(=O)c2c(C#Cc3ccc(N(C)C)nc3)cnn21 [compound 12] | 33.1 | 107 | – |
| C[C@H]1CN(c2ccc(C(F)(F)F)c(Cl)c2)C(=O)c2c(C#Cc3cnc(N)cc3CO)cnn21 [compound 22] | 0.832 | 106 | ED50 (rats): > 0.63 mg/kg |
| C[C@H]1CN(c2ccc(Cl)c(Cl)c2)C(=O)c2c(C#Cc3ccc(F)nc3)cnn21 [compound 7] | 6.76 | 105 | – |
| Cc1cc(C#Cc2cnn3c2C(=O)N(c2ccc(C(F)(F)F)cc2)C[C@@H]3C)ccn1 [compound 9] | 8.71 | 107 | – |
| C[C@H]1CN(c2ccc(C(F)(F)F)c(CF)n2)C(=O)c2c(C#Cc3ccc(N)nc3)cnn21 [compound 19] | 2.14 | 104 | ED50 (rats): > 0.63 mg/kg |
| C[C@H]1CN(c2ccc(C(F)(F)F)cc2)C(=O)c2c(C#Cc3ccnc(N)c3)cnn21 [compound 10] | 10 | 105 | – |
| CNc1ccc(C#Cc2cnn3c2C(=O)N(c2ccc(C(F)(F)F)c(Cl)n2)C[C@@H]3C)cn1 [compound 31] | 8.71 | 111 | – |
| C[C@H]1CN(c2ccc(C(F)(F)F)cc2)C(=O)c2c(C#Cc3cnc(N)cc3CO)cnn21 [compound 29] | 2.95 | 106 | ED50 (rats): > 0.63 mg/kg |
| C[C@H]1CN(c2ccc(C(F)(F)F)c(F)c2)C(=O)c2c(C#Cc3ccc(N)nc3)cnn21 [compound 18] | 2.69 | 107 | ED50 (rats): 0.13 mg/kg |
